This is an account of results in paper PMC9623576, “Semisynthesis and Evaluation of Anti-Inflammatory Activity of the Cassane-Type Diterpenoid Taepeenin F and of Some Synthetic Intermediates” (Journal of Natural Products, 2022).

Where two headings read alike, the source gives them in different places. Where only a bound is given, the exact number is not on record here.

The subject of data set [1] is HepG2 human hepatocarcinoma cells. Put plainly: MTT cancer cell proliferation assay, HepG2. Type of data set: cell-based. To be noted: HepG2, 72 h. The procedure:
(§1) The five newly synthesized diterpenoids were evaluated for their cytotoxic effects against three selected tumor cell lines, B16-F10 murine melanoma cells, HT29 human colon adenocarcinoma cells, and HepG2 human hepatocarcinoma cells at increasing concentrations (0–100 μg/mL). After 72 h of treatment, cell viability was determined by an MTT assay, where the tetrazolium dye was transformed into formazan in the mitochondria of viable cells, its absorbance measured at 570 nm and expressed as a percentage with respect to untreated control cells (S3 Figure.). The concentrations required for 20, 50, and for 80% growth inhibition (IC20, IC50, and IC80) were also determined for each compound (Table 2).
(§2) A stock solution was frozen and stored at […]. Before the experiments, this solution was diluted in cell-culture medium to the adequate concentrations for each experiment. […] For nitrite assay, subcytotoxic concentrations (3/4IC50, 1/2IC50, and 1/4IC50), were used to ensure that the NO inhibitory potential was not due to a possible cytotoxic effect. The concentrations of 3/4IC50, 1/2IC50, and 1/4IC50 were used for the cell-cycle analysis. All experiments were measured and compared with control (untreated cells after 24, 48, or 72 h of treatment.)
(§3) Human colorectal adenocarcinoma cell line HT29 (ECACC no. 9172201; ATCC no. HTB-38), human hepatocarcinome cell line HepG2 (ECACC no. 85011430), mouse melanoma cells B16-F10 (ATCC no. CRL-6475), and murine monocyte/macrophage-like RAW 264.7 cell line (ATCC no, TIB-71) were cultured in DMEM (Dulbecco’s modified Eagle’s medium) supplemented with 2 mM glutamine, 10% heat-inactivated FCS (fetal calf serum), 10 000 units/mL of penicillin and 10 mg/mL of streptomycin, (for all cancer cell lines), 50 μg/mL of gentamicin (only for RAW 264.7 cell line), and incubated at 37 °C, in an atmosphere of 5% CO2 and 95% humidity. The culture media were changed every 48 h, and the confluent cultures were separated with a trypsin solution (0.25% EDTA). In all experiments, monolayer cells were grown to 80–90% confluence, in sterile cell culture flasks. All cell lines used were purchased from the cell bank of the University of Granada, Spain.
(§4) The cytotoxicity assay was performed by the MTT (3-(4,5-dimethylthiazol-2-yl)-2,5-diphenyltetrazolium bromide) method.[21] To quantify the cytotoxicity of compounds, the fresh and suspended cells were seeded in 96-well plates to a volume of 100 μL at 6.0 × 10^3 cells/mL for HT29 and RAW 264.7 cell lines, at 5.0 × 10^3 cells/mL for B16-F10 cells and 15.0 × 10^3 for Hep G2. Then, cells were incubated to adhere over 24 h at 37 °C with 5% CO2. All tested compounds were prepared in fresh growth medium. After 24 h, an additional 100 μL of medium with the corresponding concentrations of products (only medium in the control wells) was added to the corresponding wells, at various final concentrations (0–100 μg/mL). Finally, after 72 h of incubation at 37 °C with 5% CO2, the medium with the compounds were removed and 100 μL of MTT solution (0.5 mg/mL) in 50% of PBS 50% of medium was added to each well. After 1.5 h of incubation, formazan was resuspended in 100 μL of DMSO, and each concentration was tested in triplicate. Relative cell viability, with respect to untreated control cells, was measured by absorbance at 570 nm on an ELISA plate reader (Tecan Sunrise MR20-301, TECAN, Austria).
(§5) Cytotoxicity experimental data were fitted to a sigmoidal function (y = ymax/(x/a)^−b) by nonlinear regression. […] These analyses were performed using SigmaPlot 12.5 software. Similar analyses were performed to obtain the IC50 of NO production. All data shown here are representative of at least two independent experiments performed in triplicate. All quantitative data were summarized as the mean ± standard deviation (SD).

Data set [2] has as its system B16-F10 murine melanoma cells. Put plainly: MTT cancer cell proliferation assay, B16-F10. Type of data set: cell-based. The note with it: B16-F10, 72 h. As for the experimental part:
as §1, §2, §3, §4, §5

Data set [3] relates to HT29 human colon adenocarcinoma cells. Put plainly: MTT cancer cell proliferation assay, HT29. Type of data set: cell-based. As for the experimental part:
as §1, §2, §3, §4, §5

In data set [4] the test system is NO production in LPS-activated RAW 264.7 macrophage murine cells. Put plainly: Inhibition of NO (nitrite) release, Griess reaction. Type of data set: cell-based. The procedure: The concentrations of nitrites were determined by the Griess reaction.
as §2
Nitrites production was analyzed through the Griess reaction. This nitrite concentration was used as an indicator of NO production.[35] Briefly, RAW 264.7 cells were plated at 6 × 10^3 cells/well in 24-well cell culture plates and supplemented with 10 μg/mL of lipopolysaccharide (LPS). […] The supernatants were collected at 48 and 72 h, to determine their nitrite concentrations and/or stored at −80 °C for further use.
The Griess reaction was performed taking 150 μL of supernatant test samples or sodium nitrite standard (0–120 μM) and mixed with 25 μL of Griess reagent A (0.1% N,N-(1-naphthyl) ethylenediaminedihydrochloride) and 25 μL of Griess reagent B (1% sulfanilamide in 5% of phosphoric acid), in a 96-well plate. After 15 min of incubation at room temperature, the absorbance was measured at 540 nm in an ELISA plate reader (Tecan Sunrise MR20–301, TECAN, Austria). The absorbance was referred to a nitrite standard curve to determine the concentration of nitrite in the supernatant of each experimental sample. The percentage of NO production was determined, assigning 100% at the increase between negative control (untreated cells) and positive control (cells only treated with 10 μg/mL of LPS).

The subject of data set [5] is RAW 264.7 monocyte/macrophage murine cells. Put plainly: MTT growth inhibition on RAW 264.7 cells. Type of data set: cell-based. To be noted: Mus musculus, RAW264.7, RAW 264.7, MTT; for IC20: 20% growth inhibition; for IC80: 80% growth inhibition. As for the experimental part: as §2
In all experiments, monolayer cells were grown to 80–90% confluence, in sterile cell culture flasks. All cell lines used were purchased from the cell bank of the University of Granada, Spain.
The cytotoxicity assay was performed by the MTT (3-(4,5-dimethylthiazol-2-yl)-2,5-diphenyltetrazolium bromide) method.[21] […] All tested compounds were prepared in fresh growth medium. After 24 h, an additional 100 μL of medium with the corresponding concentrations of products (only medium in the control wells) was added to the corresponding wells, at various final concentrations (0–100 μg/mL). […] After 1.5 h of incubation, formazan was resuspended in 100 μL of DMSO, and each concentration was tested in triplicate.
Cytotoxicity experimental data were fitted to a sigmoidal function (y = ymax/(x/a)^−b) by nonlinear regression. […] Similar analyses were performed to obtain the IC50 of NO production. All data shown here are representative of at least two independent experiments performed in triplicate. All quantitative data were summarized as the mean ± standard deviation (SD).

The test system of a further data set is NO release. The note with it: read-out: IC50 of NO inhibitory effect; cited from earlier work.
The next data set deals with MCF-7 cancer cell line. More on the design: method as in PMID 23806110. To be noted: MCF-7 cancer cell line ref 10; cited from earlier work.
In another data set the test system is HepG-2 cancer cell line. More on the design: method as in PMID 23806110. The note with it: HepG-2 cancer cell line ref 10; cited from earlier work.
Setting [6] is: Homo sapiens, MTT, read-out: IC50.
The mark [7] stands for this setting: Homo sapiens, MTT, read-out: IC20.
The mark [8] stands for this setting: Mus musculus, MTT, read-out: IC50.
Where [9] appears, read: Mus musculus, MTT, read-out: IC20.
Where [10] appears, read: Homo sapiens, HT-29, HT29, 72 h, MTT.
Where [11] appears, read: Homo sapiens, HT-29, HT29, 72 h, MTT, read-out: IC20.

Consider `COC(=O)[C@]1(C)CCC[C@]2(C)c3cc4c(c(C)c3CC[C@@H]12)CC(=O)O4` [Compound 6, (4R,4aR,11bS)-Methyl 4,7,11b-trimethyl-9-oxo-1,2,3,4,4a,5,6,8,9,11b-decahydrophenanthro[3,2-b]furan-4-carboxylate], for which the half-maximal inhibitory concentration (IC50) in data set [1] (MTT) was more than 100 µM; in data set [1] (MTT, listed as Taepeenin F (6)), 237 ± 9.69 µM; in data set [2] (MTT) it was more than 100 µM; in data set [2] (MTT, listed as Taepeenin F (6)), 257 ± 24 µM; in [3] (HT29, 72 h, MTT), more than 100 µM; in data set [3] (HT29, 72 h, MTT, listed as Taepeenin F (6)), 391 ± 39.5 µM. For the same compound, the IC20 was 112 ± 22 µM in [1] (Homo sapiens); 234 ± 4.12 µM in data set [2] (Mus musculus); 124.2 ± 1.11 µM in [3] (Homo sapiens, HT-29, 72 h); 111 ± 24 µM in [5]. Besides, the “inhibition of NO release” value in data set [4] (48 h, 1/2IC50 concentration) is reported as 77.80%; in data set [4] (48 h, 3/4IC50 concentration), 88.33%; in [4] (72 h, 3/4IC50 concentration), 98%. Further, the 80% effect level in [5] (IC80) was put at 254.7 ± 1.48 µM.

Consider `COC(=O)[C@]1(C)CCC[C@]2(C)c3cc(O)c(C(C)C)c(C)c3CC[C@@H]12` [Compound 17, (1R,4aS,10aR)-Methyl 6-hydroxy-7-isopropyl-1,4a,8-trimethyl-1,2,3,4,4a,9,10,10a-octahydrophenanthrene-1-carboxylate], for which the IC50 in data set [1] (MTT, read-out: IC50) was 137 ± 13.9 µM; in [1] (setting [6]), more than 85.6 µM; in [2] (MTT, read-out: IC50), 133 ± 8.17 µM; in [2] (setting [8]) it was more than 85.6 µM; in [5], 129 ± 7.06 µM. In addition, the IC80 in data set [1] (Homo sapiens, MTT) turned out to be 274 ± 41.2 µM; in data set [2] (Mus musculus, MTT), 259.3 ± 1.35 µM; in data set [3] (setting [10]) it was 311 ± 8.32 µM; in data set [5], 247 ± 6.3 µM. Besides, the 20% effect concentration (IC20) in data set [1] (setting [7]) turned out to be 32.6 ± 3.41 µM; in data set [2] (setting [9]) it was 33.3 ± 5.94 µM; in [3] (setting [11]), 122 ± 24.2 µM; in data set [5], 27.8 ± 8.38 µM. Further, the “inhibition of NO release” value in [4] (48 h, 1/2IC50 concentration) is listed as 86.5%; in [4] (48 h, 3/4IC50 concentration), 89.70%; in data set [4] (72 h, 3/4IC50 concentration), 99%.

As for `COC(=O)[C@]1(C)CCC[C@]2(C)c3cc(O)c(CO)c(C)c3CC[C@@H]12` [Compound 22, (1R,4aS,10aR)-Methyl 6-hydroxy-7-(hydroxymethyl)-1,4a,8-trimethyl-1,2,3,4,4a,9,10,10a-octahydrophenanthrene-1-carboxylate], the melting point is 98 to 101 °C. Moreover, the IC50 in data set [1] (MTT, read-out: IC50) is 125 ± 2.36 µM. The IC50 in [1] (setting [6]) was more than 85.6 µM. The 80% effect level in data set [1] (Homo sapiens, MTT) (IC80) was put at 141 ± 6.51 µM. The IC20 in data set [1] (setting [7]) turned out to be 110.1 ± 0.84 µM. The concentration for half-maximal inhibition (IC50) in data set [2] (MTT, read-out: IC50) was found to be 102 ± 4.36 µM. For the same compound, the IC50 in data set [2] (setting [8]) is more than 85.6 µM. In data set [2] (Mus musculus, MTT), this compound returned an IC80 of 122 ± 4.22 µM. Besides, the IC20 in data set [2] (setting [9]) stood at 85.5 ± 6.16 µM. For the same compound, the 50% inhibitory concentration (IC50) in [3] (HT29, 72 h, MTT, read-out: IC50) was found to be 85.6 ± 4.99 µM. For the same compound, the concentration for half-maximal inhibition (IC50) in data set [3] (Homo sapiens, HT-29, 72 h, HT29, 72 h, MTT, read-out: IC50) was more than 85.6 µM. In data set [3] (setting [10]), this compound registered an 80% effect concentration (IC80) of 114 ± 7.35 µM. In [3] (setting [11]), the 20% effect concentration (IC20) was found to be 67.5 ± 4.61 µM. Also, in [4] (48 h, 1/2IC50 concentration), the “inhibition of NO release” value is 70.94%. The “inhibition of NO release” value in data set [4] (48 h, 3/4IC50 concentration) was found to be 86.96%. Also, the “inhibition of NO release” value in data set [4] (72 h, 3/4IC50 concentration) is on record as 96%. Besides, in data set [5], the half-maximal inhibitory concentration (IC50) turned out to be 101.8 ± 0.52 µM, the 20% effect level (IC20) was put at 92.1 ± 1.13 µM and the IC80 stood at 114.2 ± 0.17 µM.

As for caesalmin A, the IC50 with NO release is approximately 25.4 µM.

Take caesalpin A [Compound 8]: the 50% inhibitory concentration (IC50) with MCF-7 cancer cell line was 2.1 µM; in the data set with HepG-2 cancer cell line, 4.7 µM.
